The target in assay [1] is T1, human vasopressin V1a receptor (Homo sapiens, UniProt P37288). In words: Human vasopressin V1a receptor binding assay. Conditions: 1321N1 cell membranes, [3H]vasopressin; read-out: Ki (nM) on hV1a cell line. In a few lines:
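Ki values come from IC50 via Cheng-Prusoff (KD from prior Scatchard), averaged over at least two independent runs. Human V1a membranes were incubated with radioligand 60 minutes at 27° C., bound ligand collected by filtration; (Arg^8)-vasopressin at 1.2×10^−6 M defined non-specific binding.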

Assay [2] deals with T1, human vasopressin V1a receptor. Briefly: Functional assay on human vasopressin V1a receptor expressing cell line (intracellular Ca2+ fluorescence). Conditions: 1321N1 cells, (Arg8)-vasopressin at EC80; read-out: IC50 (nM) on hV1a cell line. The assay is classed as cell-based.

Among the data in patent publication US11298363B2, “Triazolobenzazepines as vasopressin V1a receptor antagonists” (RICHTER GEDEON NYRT., priority 2017, dated 2022) are Ki and IC50 values, retold here.

Each structure is given as a SMILES string.

T1 sequence (P37288 whole entry): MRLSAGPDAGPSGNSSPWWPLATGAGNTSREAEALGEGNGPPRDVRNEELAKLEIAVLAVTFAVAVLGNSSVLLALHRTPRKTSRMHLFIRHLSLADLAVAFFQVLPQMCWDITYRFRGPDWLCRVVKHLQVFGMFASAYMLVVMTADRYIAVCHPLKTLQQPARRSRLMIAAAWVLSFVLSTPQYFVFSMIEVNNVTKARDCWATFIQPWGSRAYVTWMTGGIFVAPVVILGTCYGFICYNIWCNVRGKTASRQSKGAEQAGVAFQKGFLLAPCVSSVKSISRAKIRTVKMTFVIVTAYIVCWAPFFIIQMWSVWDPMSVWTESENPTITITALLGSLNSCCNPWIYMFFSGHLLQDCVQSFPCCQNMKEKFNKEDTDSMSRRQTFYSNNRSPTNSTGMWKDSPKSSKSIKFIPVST

`O=C(N[C@@H]1Cc2cc(Cl)ccc2-n2c(nnc2[C@H]2CC[C@H](Oc3ccccn3)CC2)C1)C(F)(F)F` [Example 217, N-{(5R)-8-chloro-1-[trans-4-(pyridin-2-yloxy)cyclohexyl]-5,6-dihydro-4H-[1,2,4]triazolo[4,3-a][1]benzazepin-5-yl}-2,2,2-trifluoroacetamide]: the Ki in assay [1] was 0.3 nM. Besides, the IC50 in assay [2] was determined as 1.4 nM.

As to `Clc1ccc2c(c1)C[C@H](N1CCCCC1)Cc1nnc([C@H]3CC[C@H](Oc4ccccn4)CC3)n1-2` [Example 127, (5S)-8-chloro-5-(piperidin-1-yl)-1-[trans-4-(pyridin-2-yloxy)cyclohexyl]-5,6-dihydro-4H-[1,2,4]triazolo[4,3-a][1]benzazepine], in assay [1], the Ki was 2.8 nM. The IC50 in assay [2] is 17 nM.

Regarding `C#CCN(C)[C@H]1Cc2cc(Cl)ccc2-n2c(nnc2[C@H]2CC[C@H](Oc3ccccn3)CC2)C1` [Example 209, (5S)-8-chloro-N-methyl-N-(prop-2-yn-1-yl)-1-[trans-4-(pyridin-2-yloxy)cyclohexyl]-5,6-dihydro-4H-[1,2,4]triazolo[4,3-a][1]benzazepin-5-amine], in assay [1], the Ki stood at 0.2 nM. Besides, the IC50 in assay [2] worked out at 1.6 nM.

In the case of `Fc1ccc(CN[C@H]2Cc3cc(Cl)ccc3-n3c(nnc3[C@H]3CC[C@H](Oc4ccccn4)CC3)C2)cc1` [Example 83, (S-8-chloro-N-4-fluorobenzyl)-1-[trans-4-pyridin-2-loxcyclohexyl]-5,6-dihydro-4H-[1,2,4]triazolo[4,3-a][1]benzazepine-5-amine], the Ki in assay [1] came to 4.4 nM. Also, the IC50 in assay [2] came to 44 nM.

Turning to `CC(C)(O)C(=O)N[C@H]1Cc2cc(Cl)ccc2-n2c(nnc2[C@H]2CC[C@H](Oc3ccccn3)CC2)C1` [Example 159, N-{(5S)-8-chloro-1-[trans-4-(pyridin-2-yloxy)cyclohexyl]-5,6-dihydro-4H-[1,2,4]triazolo[4,3-a][1]benzazepin-5-yl}-2-hydroxy-2-methylpropanamide], in assay [1], the Ki worked out at 8 nM. Further, the IC50 in assay [2] is 216 nM.

On to `N[C@H]1Cc2cc(Cl)ccc2-n2c(nnc2[C@H]2CC[C@H](Oc3ccccn3)CC2)C1` [Example 7, (5S)-8-chloro-1[trans-4-(pyridin-2-yloxy)cyclohexyl]-5,6-dihydro-4H-[1,2,4]triazolo[4,3-a][1]benzazepine-5-amine], for which the Ki in assay [1] stood at 2.1 nM. The IC50 in assay [2] is 20 nM.

On to `N[C@@H](C(=O)N[C@@H]1Cc2cc(Cl)ccc2-n2c(nnc2[C@H]2CC[C@H](Oc3ccccn3)CC2)C1)c1ccccc1` [Example 14, (2R)-2-amino-N-{(5R)-8-chloro-1-[trans-4-(pyridin-2-yloxy)cyclohexyl]-5,6-dihydro-4H-[1,2,4]triazolo[4,3-a][1]benzazepin-5-yl}-2-phenylacetamide], for which the Ki in assay [1] came to 1.1 nM. Also, the IC50 in assay [2] was 10 nM.

Consider `Clc1ccc2c(c1)C[C@H](NC1CCCC1)Cc1nnc([C@H]3CC[C@H](Oc4ccccn4)CC3)n1-2` [Example 154, (5S)-8-chloro-N-cyclopentyl-1-[trans-4-(pyridin-2-yloxy)cyclohexyl]-5,6-dihydro-4H-[1,2,4]triazolo[4,3-a][1]benzazepin-5-amine], for which, in assay [1], the Ki was 0.8 nM. Moreover, the IC50 in assay [2] came to 21 nM.

With `CC(C)NC1Cc2cc(Br)ccc2-n2c(nnc2[C@H]2CC[C@H](C(F)(F)F)CC2)C1` (stereo partly drawn) [Example 46, 8-bromo-N-(propan-2-yl)-1-[trans-4-(trifluoromethyl)cyclohexyl]-5,6-dihydro-4H-[1,2,4]triazolo[4,3-a][1]benzazepine-5-amine], the Ki in assay [1] is 23 nM. Besides, the IC50 in assay [2] is 410 nM.

As to `CC[C@]1(OC)CC[C@H](c2nnc3n2-c2ccc(Cl)cc2CC2(C3)OCCO2)CC1` [Example 241, 8′-chloro-1′-(trans-4-ethyl-4-methoxycyclohexyl)-4′H,6′H-spiro[1,3-dioxolane-2,5′-[1,2,4]triazolo[4,3-a][1]benzazepine]], the Ki in assay [1] stood at 0.4 nM. Besides, in assay [2], the IC50 was 2.6 nM.

As for `COC1Cc2cc(Cl)ccc2-n2c(nnc2C2CCN(C(=O)c3ccccn3)C2)C1` (stereo not drawn) [Example 189, [3-(8-chloro-5-methoxy-5,6-dihydro-4H-[1,2,4]triazolo[4,3-a][1]benzazepin-1-yl)pyrrolidin-1-yl](pyridin-2-yl)methanone], the Ki in assay [1] was 10 nM. Besides, in assay [2], the half-inhibitory concentration (IC50) came out at 229 nM.

On to `N[C@H](C(=O)N[C@@H]1Cc2cc(Cl)ccc2-n2c(nnc2[C@H]2CC[C@H](Oc3ccccn3)CC2)C1)c1ccccc1` [Example 13, (2S)-2-amino-N-{(5R)-8-chloro-1-[trans-4-(pyridin-2-yloxy)cyclohexyl]-5,6-dihydro-4H-[1,2,4]triazolo[4,3-a][1]benzazepin-5-yl}-2-phenylacetamide], for which the Ki in assay [1] was found to be 5 nM. Moreover, the IC50 in assay [2] came to 45 nM.

On to `O=C1Cc2cc(Cl)ccc2-n2c(nnc2N2CCC3(CC2)OCc2ccccc23)C1` [Example 156, 8-chloro-1-(1′H,3H-spiro[2-benzofuran-1,4′-piperidin]-1′-yl)-4H-[1,2,4]triazolo[4,3-a][1]benzazepin-5(6H)-one], for which, in assay [1], the Ki worked out at 0.5 nM. In addition, the IC50 in assay [2] is 9.5 nM.

Regarding `CC(C)C(=O)N[C@@H]1Cc2cc(Cl)ccc2-n2c(nnc2[C@H]2CC[C@H](Oc3ccccn3)CC2)C1` [Example 124, N-{(5R)-8-chloro-1-[trans-4-(pyridin-2-yloxy)cyclohexyl]-5,6-dihydro-4H-[1,2,4]triazolo[4,3-a][1]benzazepin-5-yl}-2-methylpropanamide], the Ki in assay [1] stood at 1.7 nM. The IC50 in assay [2] came out at 5.1 nM.

In the case of `CN(C)CCC(=O)N[C@H]1Cc2cc(Cl)ccc2-n2c(nnc2[C@H]2CC[C@H](Oc3ccccn3)CC2)C1` [Example 153, N-{(5S)-8-chloro-1-[trans-4-(pyridin-2-yloxy)cyclohexyl]-5,6-dihydro-4H-[1,2,4]triazolo[4,3-a][1]benzazepin-5-yl}-N^3,N^3-dimethyl-β-alaninamide], the Ki in assay [1] was 20.5 nM. Besides, the IC50 in assay [2] was 307 nM.

Turning to `Clc1ccc2c(c1)CC(OCC1CC1)Cc1nnc([C@H]3CC[C@H](Oc4ccccn4)CC3)n1-2` (stereo partly drawn) [Example 59, 5-(Cyclopropylmethoxy)-8-chloro-1-[trans-4-(pyridin-2-yloxy)cyclohexyl]-5,6-dihydro-4H-[1,2,4]triazolo[4,3-a][1]benzazepine], the Ki in assay [1] was 0.8 nM. For the same compound, the IC50 in assay [2] stood at 2.5 nM.

For the compound `CO[C@H]1Cc2cc(Cl)ccc2-n2c(nnc2[C@H]2CC[C@H](C(F)(F)F)CC2)C1` (single isomer, unassigned) [Example 133], the Ki in assay [1] was 0.4 nM. In addition, the IC50 in assay [2] stood at 6.5 nM.

Regarding `COC1Cc2cc(Cl)ccc2-n2c(nnc2N2CCN(c3ccccn3)CC2)C1` (stereo not drawn) [Example 232, 8-chloro-5-methoxy-1-[4-(pyridin-2-yl)piperazin-1-yl]-5,6-dihydro-4H-[1,2,4]triazolo[4,3-a][1]benzazepine], the Ki in assay [1] worked out at 1.3 nM. For the same compound, the IC50 in assay [2] was determined as 9.2 nM.

Take `NCC(=O)NC1Cc2cc(Cl)ccc2-n2c(nnc2[C@H]2CC[C@H](Oc3ccccn3)CC2)C1` (stereo partly drawn) [Example 10, N-{8-chloro-1-[trans-4-(pyridin-2-yloxy)cyclohexyl]-5,6-dihydro-4H-[1,2,4]triazolo[4,3-a][1]benzazepin-5-yl}glycinamide]: the inhibitory constant (Ki) in assay [1] was 1.8 nM. In assay [2], the IC50 was 12 nM.

Regarding `COC1Cc2cc(Cl)ccc2-n2c(nnc2[C@H]2CC[C@H](N3CCN(C)CC3)CC2)C1` (stereo partly drawn) [Example 182, 8-chloro-5-methoxy-1-[trans-4-(4-methylpiperazin-1-yl)cyclohexyl]-5,6-dihydro-4H-[1,2,4]triazolo[4,3-a][1]benzazepine], the Ki in assay [1] was found to be 19 nM. For the same compound, the IC50 in assay [2] worked out at 416 nM.

Regarding `N#Cc1ccc2c(c1)CC1(Cc3nnc([C@H]4CC[C@H](C(F)(F)F)CC4)n3-2)OCCO1` [Example 84, 1′-[trans-4-(trifluoromethyl)cyclohexyl]-4′H,6′H-spiro[1,3-dioxolane-2,5′-[1,2,4]triazolo[4,3-a][1]benzazepine]-8′-carbonitrile], in assay [1], the Ki is 11.4 nM. The half-maximal inhibitory concentration (IC50) in assay [2] turned out to be 72 nM.

For `Cc1ccc2c(c1)CC(NC(C)C)Cc1nnc([C@H]3CC[C@H](Oc4ccccn4)CC3)n1-2` (stereo partly drawn) [Example 38, 8-methyl-N-(propan-2yl)-1-[trans-4-(pyridin-2-yloxy)cyclohexyl]-5,6-dihydro-4H-[1,2,4]triazolo[4,3-a][1]benzazepine-5-amine], the inhibition constant (Ki) in assay [1] was determined as 2 nM. Besides, the IC50 in assay [2] turned out to be 30 nM.

In the case of `N#Cc1ccc2c(c1)CC1(Cc3nnc([C@H]4CC[C@H](C(=O)N5CCCCC5)CC4)n3-2)OCCO1` [Example 90, 1′-[trans-4-(piperidin-1-ylcarbonyl)cyclohexyl]-4′H,6′H-spiro[1,3-dioxolane-2,5′-[1,2,4]triazolo[4,3-a][1]benzazepin]-8′-carbonitrile], in assay [1], the Ki was 10.2 nM. In addition, the IC50 in assay [2] was 152 nM.

As for `COC1Cc2cc(Cl)ccc2-n2c(nnc2[C@@H]2CCN(Cc3cccnc3)C2)C1` (stereo partly drawn) [Example 247], in assay [1], the Ki came to 5 nM. In addition, the IC50 in assay [2] turned out to be 30 nM.

For `O=C(N[C@H]1Cc2cc(Cl)ccc2-n2c(nnc2[C@H]2CC[C@H](Oc3ccccn3)CC2)C1)C(F)(F)F` [Example 201], in assay [1], the Ki was 3.9 nM. In assay [2], the IC50 was 19 nM.

As for `Clc1ccc2c(c1)CC1(Cc3nnc(C4CN(c5ncccn5)C4)n3-2)OCCO1` [Example 79], in assay [1], the Ki was determined as 71 nM. Besides, the IC50 in assay [2] was 1860 nM.

Take `COC1Cc2cc(Cl)ccc2-n2c(nnc2C2CCN(Cc3ccccn3)C2)C1` (stereo not drawn) [Example 185, 8-chloro-5-methoxy-1-[1-(pyridin-2-ylmethyl)pyrrolidin-3-yl]-5,6-dihydro-4H-[1,2,4]triazolo[4,3-a][1]benzazepine]: the Ki in assay [1] came out at 4.1 nM. For the same compound, the IC50 in assay [2] was found to be 19 nM.

Broadly, the Ki is a measure of affinity in units of concentration, obtained from inhibition or displacement. As a reminder, the IC50 is the point on the concentration scale where inhibition reaches its midpoint.
